Holding throughout (type): cell-based
For experiment [1], the system named is E. coli clinical isolate (strain 1). The experiment is described as follows: MIC by broth microdilution (alone and in combination with meropenam), strain 1. The note with it: for MIC: Escherichia coli, compound alone. Here is the method: (§1) Compounds of the present invention alone, meropenam (MER) alone, and as a combination with test antibiotic (meropenam) were tested for antimicrobial activity by determing minimum inhibitory concentration (MIC, mg/L) using the broth microdilution method according to the guidelines of the Clinical Laboratories and Stansards Insitute (“Methods for Dilution Antimicrobial Suscetibility Tests for Bacterial that Grow Aerobiclly”, Approved standard, […]., Clinical and Laboratories Stanards Institute (CLSI) Document M7-A8, Wayne, Pa., USA, 2009). Meropenam as a test antibiotic compound was dissolved in DMSO. Meropenam was then diluted in microbial growth medium (Mueller-Hinton Broth II, cation adjusted) resulting in a final concention range of 0.125-64 mg/L in serial two-fold dilution. In all cases the filnal DMSO concentraion was less than 0.5%. Bacteria were added to 96-well microtitre plates containing the serial two-fold dilutions of the compoumds; the final cell density was appoximately 5x10^5 colony forming units/mL (CFU/mL). Plates were incubated at 37° C. for 18-24 hours and read visually. The MIC, i.e. the lowest concentration of the test compound that inhibited visible growth of the bacteria, was recorded. The same assay conditions were used when the compounds of present invention alone, and as a combination with test meropenam antibiotic compound was tested for minmum inhibitory concentration (MIC, mg/L). Whileest meropenam was serially diluted as descrribed above, a constant concentration of the present invention of 4 µg/mL was used.
(§2) Bacterial strains that were used to evaluate the antimicrobial activity using the MIC determination included but were not limited to E. coli clinical isolate (strain 1), E. coli 8739 (strain 2), K. pneumoniae clinical isolate (strain 3), K. pneumoniae 700603 (strain 4), E. cloacae clinical isolate (strain 5), E. cloacae 700323 (strain 6), A. baumannii clinical isolate (strain 7), A. baumannii 19606 (strain 8), P. aeruginosa clinical isolate (strain 9), P. aeruginosa 9027 (strain 10).
(In general: Broth dilution looks for growth in wells or tubes with falling amounts of substance.)

Experiment [2] relates to E. coli 8739 (strain 2). Description: MIC by broth microdilution (alone and in combination with meropenam), strain 2. The note with it: for MIC: Escherichia coli, compound alone. Here is the method: as §1, §2
Experiment [3] has as its system K. pneumoniae clinical isolate (strain 3). Description: MIC by broth microdilution (alone and in combination with meropenam), strain 3. To be noted: for MIC: Klebsiella pneumoniae, compound alone. As for the experimental part:
as §1, §2

The test system of experiment [4] is K. pneumoniae 700603 (strain 4). Description: MIC by broth microdilution (alone and in combination with meropenam), strain 4. To be noted: for MIC: Klebsiella pneumoniae, compound alone. Here is the method:
as §1, §2

Experiment [5] has as its system E. cloacae clinical isolate (strain 5). Description: MIC by broth microdilution (alone and in combination with meropenam), strain 5. The note with it: for MIC: Enterobacter cloacae, compound alone. Here is the method:
as §1, §2

For experiment [6], the system named is E. cloacae 700323 (strain 6). Description: MIC by broth microdilution (alone and in combination with meropenam), strain 6. The note with it: for MIC: Enterobacter cloacae, compound alone. As for the experimental part:
as §1, §2

The test system of experiment [7] is A. baumannii clinical isolate (strain 7). Description: MIC by broth microdilution (alone and in combination with meropenam), strain 7. The note with it: for MIC: Acinetobacter baumannii, compound alone. Here is the method:
as §1, §2

For experiment [8], the system named is A. baumannii 19606 (strain 8). The experiment is described as follows: MIC by broth microdilution (alone and in combination with meropenam), strain 8. To be noted: for MIC: Acinetobacter baumannii, compound alone. Here is the method:
as §1, §2

For experiment [9], the system named is P. aeruginosa clinical isolate (strain 9). The experiment is described as follows: MIC by broth microdilution (alone and in combination with meropenam), strain 9. To be noted: for MIC: Pseudomonas aeruginosa, compound alone. As for the experimental part:
as §1, §2

For experiment [10], the system named is P. aeruginosa 9027 (strain 10). Description: MIC by broth microdilution (alone and in combination with meropenam), strain 10. To be noted: for MIC: Pseudomonas aeruginosa, compound alone. As for the experimental part:
as §1, §2

The mark [11] stands for this setting: read-out: MIC, antibacterial activity of example alone.

Each structure is given as a SMILES string. Structures can show the parent of a compound that is named as a salt. Where two headings read alike, the source gives them in different places.

Usually MIC stands for the least concentration at which growth counts as inhibited.

For the molecule `CC(=O)N1CCCC[C@@H]1C(=O)NC(=N)[C@@H]1CC[C@@H]2CN1C(=O)N2OS(=O)(=O)[O-].[Na+]` [Ex.46, Sodium (2S,5R)-2-(N-((R)-1-acetylpiperidine-2-carbonyl)carbamimidoyl)-7-oxo-1,6-diazabicyclo[3.2.1]octan-6-yl Sulfate], the MIC in [1] (read-out: MIC), in [2] (read-out: MIC), in [3] (read-out: MIC), in experiment [4] (read-out: MIC), in experiment [5] (read-out: MIC) and in [6] (read-out: MIC) was greater than 64 µg/mL throughout. The MIC in [7] (read-out: MIC), in experiment [8] (read-out: MIC), in [9] (read-out: MIC) and in [10] (read-out: MIC) was greater than 64 µg/mL each time.

As to `N=C(NC(=O)c1ccncc1)[C@@H]1CC[C@@H]2CN1C(=O)N2OS(=O)(=O)O` [Ex.7, (2S,5R)-2-(N-isonicotinoylcarbamimidoyl)-7-oxo-1,6-diazabicyclo[3.2.1]octan-6-yl Hydrogen Sulfate], the MIC in experiment [1] (setting [11]), in [2] (setting [11]), in experiment [3] (setting [11]), in experiment [4] (setting [11]), in [5] (setting [11]) and in experiment [6] (setting [11]) was greater than 64 µg/mL in each case. For the same molecule, the MIC in experiment [7] (setting [11]), in [8] (setting [11]), in [9] (setting [11]) and in experiment [10] (setting [11]) was greater than 64 µg/mL throughout.

For `N=C(NC(=O)c1cocn1)[C@@H]1CC[C@@H]2CN1C(=O)N2OS(=O)(=O)[O-].[Na+]` [Ex.20, Sodium (2S,5R)-2-(N-(oxazole-4-carbonyl)carbamimidoyl)-7-oxo-1,6-diazabicyclo[3.2.1]octan-6-yl Sulfate], the MIC in [1] (setting [11]), in experiment [2] (setting [11]), in experiment [3] (setting [11]), in experiment [4] (setting [11]), in [5] (setting [11]) and in experiment [6] (setting [11]) was greater than 64 µg/mL throughout. Also, the MIC in experiment [7] (setting [11]), in experiment [8] (setting [11]), in [9] (setting [11]) and in experiment [10] (setting [11]) was greater than 64 µg/mL each time.

For `N=C(NC(=O)Cc1ncccn1)[C@@H]1CC[C@@H]2CN1C(=O)N2OS(=O)(=O)[O-].[Na+]` [Ex.25, Sodium (2S,5R)-7-oxo-2-(N-(2-(pyrimidin-2-yl)acetyl)carbamimidoyl)-1,6-diazabicyclo[3.2.1]octan-6-yl Sulfate], the MIC in [1] (setting [11]), in [2] (setting [11]), in experiment [3] (setting [11]), in [4] (setting [11]), in experiment [5] (setting [11]) and in experiment [6] (setting [11]) was greater than 64 µg/mL throughout. Also, the MIC in [7] (setting [11]), in experiment [8] (setting [11]), in [9] (setting [11]) and in [10] (setting [11]) was greater than 64 µg/mL in each case.

Take `N=C(NC(=O)c1ccncn1)[C@@H]1CC[C@@H]2CN1C(=O)N2OS(=O)(=O)[O-].[Na+]` [Ex.48, Sodium (2S,5R)-7-oxo-2-(N-(pyrimidine-4-carbonyl)carbamimidoyl)-1,6-diazabicyclo[3.2.1]octan-6-yl Sulfate]: the MIC in experiment [1] (read-out: MIC), in [2] (read-out: MIC), in [3] (read-out: MIC), in experiment [4] (read-out: MIC), in experiment [5] (read-out: MIC) and in experiment [6] (read-out: MIC) was greater than 64 µg/mL in each case. The MIC in experiment [7] (read-out: MIC), in experiment [8] (read-out: MIC), in experiment [9] (read-out: MIC) and in [10] (read-out: MIC) was greater than 64 µg/mL each time.

`N=C(NC(=O)c1ccc(F)cc1)[C@@H]1CC[C@@H]2CN1C(=O)N2OS(=O)(=O)O` [Ex.17, (2S,5R)-2-(N-(4-fluorobenzoyl)carbamimidoyl)-7-oxo-1,6-diazabicyclo[3.2.1]octan-6-yl Hydrogen Sulfate]: the MIC in [1] (setting [11]), in experiment [2] (setting [11]), in [3] (setting [11]), in [4] (setting [11]), in [5] (setting [11]) and in [6] (setting [11]) was greater than 64 µg/mL throughout. Further, the MIC in [7] (setting [11]), in experiment [8] (setting [11]), in [9] (setting [11]) and in experiment [10] (setting [11]) was greater than 64 µg/mL throughout.

Take `N=C(NC(=O)c1nccs1)[C@@H]1CC[C@@H]2CN1C(=O)N2OS(=O)(=O)[O-].[Na+]` [Ex.23, Sodium (2S,5R)-7-oxo-2-(N-(thiazole-2-carbonyl)carbamimidoyl)-1,6-diazabicyclo[3.2.1]octan-6-yl Sulfate]: the MIC in [1] (setting [11]), in [2] (setting [11]), in experiment [3] (setting [11]), in experiment [4] (setting [11]), in [5] (setting [11]) and in [6] (setting [11]) was greater than 64 µg/mL throughout. Moreover, the MIC in experiment [7] (setting [11]), in [8] (setting [11]), in [9] (setting [11]) and in experiment [10] (setting [11]) was greater than 64 µg/mL in each case.

Regarding `CC(C)(C)OC(=O)N1CCC(C(=O)NC(=N)[C@@H]2CC[C@@H]3CN2C(=O)N3OS(=O)(=O)[O-])CC1.[Na+]` [Ex.14, Sodium (2S,5R)-2-(N-(1-(tert-butoxycarbonyl)piperidine-4-carbonyl)carbamimidoyl)-7-oxo-1,6-diazabicyclo[3.2.1]octan-6-yl Sulfate], the MIC in experiment [1] (setting [11]), in experiment [2] (setting [11]), in [3] (setting [11]), in experiment [4] (setting [11]), in experiment [5] (setting [11]) and in [6] (setting [11]) was greater than 64 µg/mL in each case. The MIC in experiment [7] (setting [11]), in experiment [8] (setting [11]), in [9] (setting [11]) and in experiment [10] (setting [11]) was greater than 64 µg/mL throughout.

Turning to `N=C(NC(=O)c1cnco1)[C@@H]1CC[C@@H]2CN1C(=O)N2OS(=O)(=O)[O-].[Na+]` [Ex.21, Sodium (2S,5R)-2-(N-(oxazole-5-carbonyl)carbamimidoyl)-7-oxo-1,6-diazabicyclo[3.2.1]octan-6-yl Sulfate], the MIC in experiment [1] (setting [11]), in experiment [2] (setting [11]), in [3] (setting [11]), in experiment [4] (setting [11]), in [5] (setting [11]) and in experiment [6] (setting [11]) was greater than 64 µg/mL each time. For the same molecule, the MIC in experiment [7] (setting [11]), in experiment [8] (setting [11]), in experiment [9] (setting [11]) and in experiment [10] (setting [11]) was greater than 64 µg/mL throughout.

With `CC(=O)N1CCC[C@H](C(=O)NC(=N)[C@@H]2CC[C@@H]3CN2C(=O)N3OS(=O)(=O)[O-])C1.[Na+]` [Ex.26, Sodium (2S,5R)-2-(N-((S)-1-acetylpiperidine-3-carbonyl)carbamimidoyl)-7-oxo-1,6-diazabicyclo[3.2.1]octan-6-yl Sulfate], the MIC in experiment [1] (setting [11]), in experiment [2] (setting [11]), in experiment [3] (setting [11]), in [4] (setting [11]), in experiment [5] (setting [11]) and in [6] (setting [11]) was greater than 64 µg/mL each time. The MIC in experiment [7] (setting [11]), in experiment [8] (setting [11]), in [9] (setting [11]) and in experiment [10] (setting [11]) was greater than 64 µg/mL throughout.

Take `C[C@@H](O)[C@H]1C(=O)N2C(C(=O)O)=C(S[C@@H]3CN[C@H](C(=O)N(C)C)C3)[C@H](C)[C@H]12` [MER, meropenam, reference compound]: the “MIC, MER Alone” value in experiment [1] (meropenam alone) was 2.0 µg/mL; in experiment [2] (meropenam alone), 2.0 µg/mL; in experiment [3] (meropenam alone) it was 2.0 µg/mL; in experiment [4] (meropenam alone), 1.0 µg/mL; in [5] (meropenam alone) it was 2.0 µg/mL; in [6] (meropenam alone), 2.0 µg/mL. The “MIC, MER Alone” value in [7] (meropenam alone) stood at 2.0 µg/mL; in [8] (meropenam alone), 1.0 µg/mL; in experiment [9] (meropenam alone), 2.0 µg/mL; in experiment [10] (meropenam alone) it was 2.0 µg/mL.

In the case of `N=C(NC(=O)c1ccc(C(F)(F)F)cc1)[C@@H]1CC[C@@H]2CN1C(=O)N2OS(=O)(=O)[O-].[Na+]` [Ex.49, Sodium (2S,5R)-7-oxo-2-(N-(4-(trifluoromethyl)benzoyl)carbamimidoyl)-1,6-diazabicyclo[3.2.1]octan-6-yl Sulfate], the MIC in experiment [1] (read-out: MIC), in experiment [2] (read-out: MIC), in experiment [3] (read-out: MIC), in experiment [4] (read-out: MIC), in experiment [5] (read-out: MIC) and in [6] (read-out: MIC) was greater than 64 µg/mL each time. Moreover, the MIC in [7] (read-out: MIC), in experiment [8] (read-out: MIC), in experiment [9] (read-out: MIC) and in [10] (read-out: MIC) was greater than 64 µg/mL each time.
